These are literature values, as cited in US5935597A, “Drug delivery devices and methods for treatment of viral and microbial infections and wasting syndromes” (Cryopreservation Technologies CC, priority 1995, dated 1999).

Data set [1] deals with HIV. Particulars: certain cultured cell lines; cited from earlier work.
The next data set concerns human cancer. To be noted: cited from earlier work.
Data set [2] deals with Human Herpes Virus 6 (HHV-6). Particulars: certain cultured cell lines; cited from earlier work.
The next data set relates to human cancer xenografts. To be noted: intraperitoneal injection, nude mice; cited from earlier work.
Data set [3] deals with HIV. Particulars: cited from earlier work.
The conditions of data set [4]: appetite enhancers, wasting syndromes; cited from earlier work.
The next data set has as its system mouse sarcoma allograft. Particulars: in vivo; cited from earlier work.
A further data set deals with HIV-1. To be noted: cells infected with HIV-1 isolates, in vitro; cited from earlier work.
The subject of the next data set is HIV-2. Particulars: cells infected with HIV-2 isolates, in vitro; cited from earlier work.

Take `C[S+](C)[O-]` [DMSO, dimethylsulfoxide]: in the data set with HIV [1], the “in vitro replication of HIV” value is on record as “inhibit in vitro replication of HIV”. Also, the objective response result in the data set on human cancer (human cancer patients) is “no objective response”. Besides, the “in vitro replication of HHV-6” value in [2] is “inhibit in vitro replication of HIV and Human Herpes Virus 6 (HHV-6)”. Turning to `CNC=O` [NMF, N-methylformamide], the anticancer activity entry with human cancer (oral, human patients with cancer of the head and neck (Planting et al.)) is listed as “only minimal activity”. The hepatotoxicity and response result in the data set on human cancer (oral, human patients with cancer of the head and neck (Vogel et al.)) is “hepatotoxicity with no beneficial response”. The “growth of human cancer xenografts” value with human cancer xenografts is “slow the growth of certain human cancer xenografts”. Consider `Cc1cn([C@H]2C=C[C@@H](CO)O2)c(=O)[nH]c1=O` [d4T, stavudine], for which the anti-HIV activity result with HIV [3] is “active against HIV”. In the case of `CCCCCc1cc(O)c2c(c1)OC(C)(C)[C@@H]1CCC(C)=C[C@@H]21` [dronabinol], the weight gain entry in data set [4] was “tended to gain only fat and not overall body mass”. With `NC=O` [formamide], in the data set with mouse sarcoma allograft, the toxicity entry is listed as “toxic side-effects”. As to `CC(=O)O[C@]1(C(C)=O)CC[C@H]2[C@@H]3C=C(C)C4=CC(=O)CC[C@]4(C)[C@H]3CC[C@@]21C` [megestrol acetate], the weight gain entry in data set [4] was “tended to gain only fat and not overall body mass”.

B1: MIP-1β: chemokine secreted by CD8+ T cells (protein, UniProt P13236 24-92, looked up)
C-C motif chemokine 4: APMGSDPPTACCFSYTARKLPRNFVVDYYETSSLCSQPAVVFQTKRSKQVCADPSESWVQEYVYDLELN
modifications: ends and bridges not checked
notes: chemokine secreted by CD8+ T cells
Consider B1, for which the “HIV-1 p24 antigen production” value with HIV-1 and in the data set on HIV-2 was “suppress HIV-1 p24 antigen production” each time.

B2: MIP-1α: chemokine secreted by CD8+ T cells (protein, UniProt P10147 24-92, looked up)
C-C motif chemokine 3: SLAADTPTACCFSYTSRQIPQNFIADYFETSSQCSKPGVIFLTKRSRQVCADPSEEWVQKYVSDLELSA
As for B2, the “HIV-1 p24 antigen production” value with HIV-1 and in the data set with HIV-2 was “suppress HIV-1 p24 antigen production” each time.

B3: RANTES: chemokine secreted by CD8+ T cells (protein, UniProt P13501 24-91, looked up)
C-C motif chemokine 5: SPYSSDTTPCCFAYIARPLPRAHIKEYFYTSGKCSNPAVVFVTRKNRQVCANPEKKWVREYINSLEMS
For B3, the “HIV-1 p24 antigen production” value in the data set with HIV-1 and with HIV-2 was “suppress HIV-1 p24 antigen production” throughout.
